From patent publication US10648979B2, “Molecular probes for detecting gram-negative bacteria in vitro and in vivo” (priority 2014, dated 2020)
Bridge positions count the residues as written; N and C are the ends. Square brackets hold non-standard residues; d marks the D form. Peptide text beside a SMILES is read from it. * marks the point of attachment. ξ: configuration not given here. NBD = O=[N+]([O-])c1ccc(*)c2nonc12; dDab = NCC[C@@H](N)C(=O)O; Dab = NCC[C@H](N)C(=O)O; AEEA = NCCOCCOCC(=O)O; ξDab = NCCC(N)C(=O)O

How the values were obtained:
[1] = Stability in saline or BALF from patients with Acute Lung Injury (MALDI-TOF / FTMS); details: incubated for 30 minutes
Description: FIG. 16: NBD-UBIdend is stable in ALI BALF. […] NBD-PMX is stable in ALI BALF.
Secondly we assessed stability of the probes in broncholalveolar lavage fluid (BALF) from patients with Acute Lung Injury (ALI) by Fourier Transform Mass Spectrometry (FTMS) and Matrix-Assisted Laser Desorption/Ionization Time-of-Flight Mass Spectrometry (MALDI-TOF MS) analysis. NBD-UBINle, NBD-UBIdend and NBD-PMX were incubated for 30 minutes with BALF (FIG. 16).
In vitro labelling was assessed on benchtop confocal in the presence of compound with bacteria and labelling was compared to NBD-UBINle which served as a reference control for bacterial labelling. […] For the ex vivo and in vivo ovine lung experiments each compound was assessed in a control lung segment (instilled with 2 ml PBS) or a bacterial segment (instilled with 2 ml of 2 optical density of bacteria). Following bacterial instillation, the compound was administered to the segment of interest and this was imaged by probe based confocal laser endomicroscopy (FCFM).
Probe was added to saline or pooled BALF from patients with ALI incubated for 30 minutes. A ZipTip (C-18, 0.2 μL) with 5 μL MeCN (with 0.1% TFA as an additive) followed by 20 μL of H2O was washed. The ZipTip was loaded with the sample, washed and eluted into 5 μL of 80% aq. MeCN (with 0.1% TFA as an additive). The sample was analysed by MALDI-TOF (PerSeptive Biosystems Voyager DETMSTR MALDI-TOF mass spectrometer (Applied Biosystems, Foster City, Calif.)).

[2] = tested on: bacteria instilled into ovine lung segments; assay: Ex vivo ovine lung model of bacterial infection, in situ labelling imaged by FCFM
Description: FIG. 9: Ex vivo model of bacterial infection. A) Ovine lungs were harvested, ventilated and placed in a neonatal incubator with ambient temperature of 37° C. Pulmonary segments were instilled with PBS (control) or bacteria via bronchoscopy. Probes were then instilled and segments imaged with fibered confocal fluorescence microscopy (FCFM) using 488 nm Laser Scanning Unit (LSU). […] Bacteria (MSSA) instilled into segments of ovine lung and lavaged at 1, 3 and 5 hours (n=3), plated for CFU/ml and counted following 16 hour incubation.
NBD-UBIdend and NBD-PMX were assessed for in situ specificity and sensitivity in an ex vivo ovine model of bacterial infection (FIG. 9). […] We observed identical patterns with Calcein-labelled bacteria and Green Fluorescent Protein-expressing S. aureus which were instilled into the lung and imaged with FCFM (FIG. 10A). This pattern is reproduced identically by instilling bacteria “pre-labelled” with NBD-UBIdend and NBD-PMX into lung segments.
Following this thorough characterisation of the model and positive controls, we instilled PBS or VAP-relevant bacteria into distinct segments within the ex vivo lung model, followed by the microdosed delivery of the probes.
All compounds have undergone biological assessment.
Bacteria were grown to midlog phase in 400 ml TSB, pelleted by centrifugation and resuspended in 2 ml PBS. This was mixed with 18 ml molten tryptic-soy agar (50° C.) and injected rapidly into vortexing mineral oil +0.01% Span 80, pre-warmed to 50° C. This was then rapidly cooled to 4° C. whilst continuing to vortex to allow the beads to set. Bacterial agar beads were pelleted by centrifugation (20 minutes, 3000 g) and washed in 0.5% sodium deoxycholate (SDC) in PBS (20 minutes, 3000 g), followed by 0.25% SDC (20 minutes, 3000 g) in PBS, washed in PBS (10 minutes, 3000 g) and 3×PBS (5 minutes, 200 g). Beads were resuspended at 50% v/v in PBS for instillation.
From a cohort of surplus stock ewes which were destined for cull, one ewe was identified and terminally euthanized with an overdose of anaesthetic. Death was confirmed and the trachea was identified and clamped in situ. The thoracic cavity was then accessed and the lungs were freed from surrounding tissues and organs and the heart/lung was removed en block. The right pulmonary artery was identified, cannulated and perfused with 1000 ml 0.9% NaCl. Once filling of the left ventricle was confirmed an incision was made to allow free drainage and perfusion continued until the drainage from the left atrium was clear. The lungs were then transferred to the Queen's Medical Research Institute and the trachea was intubated with an 8.0 endotracheal tube immediately following clamp release. […]

SMILES: CC(C)C[C@@H]1NC(=O)[C@@H](Cc2ccccc2)NC(=O)[C@@H](CCN)NC(=O)C(NC(=O)[C@H](CCN)NC(=O)[C@@H](NC(=O)COCCOCCNc2ccc([N+](=O)[O-])c3nonc23)[C@@H](C)O)CCNC(=O)[C@@H]([C@H](C)O)NC(=O)[C@H](CCN)NC(=O)[C@H](CCN)NC1=O (stereo partly drawn) [NBD-PMX] ({NBD-AEEA}-T[Dab][ξDab][dDab][dF]L[Dab][Dab][dT]; lactam 3-C)
- stability in ALI BALF [1]: demonstrate stability
- stability in saline [1]: readily identified in both saline and BALF incubated samples
- detection of bacteria-coated agarose beads in situ ([2]; FCFM): when beads are coated with bacteria a signal is seen
- in situ labelling of bacteria in segments instilled with bacteria ([2]; FCFM): demonstrated labelling
- signal in segments with PBS or gram-positive bacteria ([2]; MSSA, MRSA, S. pneumoniae): no signal in segments with PBS or gram-positive bacteria
- signal in segments instilled with gram-negative bacteria ([2]; P. aeruginosa (PA01, J3284), K. pneumoniae, E. coli): the same signal as in the ‘positive controls’
